Test results published in US20160067267A1, “MYO-INOSITOL TRISPYROPHOSPHATE AS AN ANTI-OBESITY AGENT” (NormOxys, Inc., priority 2013, published 2016).

Key:
[1] = Second study: prevention of weight gain on high fat diet, ITPP in drinking water, 70 days; type: in vivo; conditions: FIG. 2
Description: (§1) Experiments were conducted in analogue ways. First, 30 Balb/c-mice, 10 mice in each group, were assessed. Group 1 was a control group; mice were fed with normal mouse food and water for the whole duration of the experiment (120 days). […] Group III was fed with high fat diet, normal food and, instead of normal water, animals drank an ITPP solution for the duration of the experiment of (ITPP). The concentration was 10 g ITPP per liter water, containing no calcium salt, pH˜6.8-7.2).
(§2) The HFD was 235HF (U8955 version 9) casein 20%, corn starch 13%, sucrose 24.3%, cellulose 5%, malto dextrin 2.2%, lard 25%, soja oil 2.5%, mineral 205B SAFE 7%, and vitamine 200 SAFE 1%.
(§3) All food, water, and ITPP were given ad libitum. In 5 days intervals, body weights from each animal were recorded.
As before, in 5 days intervals body weights of the Balb/c-mice were measured.

[2] = First study: prevention of weight gain on high fat diet, ITPP in drinking water, 120 days; type: in vivo
Description: as §1, §2, §3

[3] = Third study: weight loss of overweight mice on normal food drinking ITPP solution, about 30 days; type: in vivo, Balb/c-mice; conditions: FIG. 3, normal mouse food, water with ITPP 10 g per liter
Description: In a third study the group with the 10 mice which had gained weight (˜30%) was divided in two groups (5 animals per cage). For 1 month, one group drank water while the other one drank an ITPP-solution (10 g/L) for about 30 days until the date of observation. The food was normal mouse food as before (pellets from SAFE, France). The body weights of the mice were measured 4 times until the final day.

Q: With `O=P1(O)OC2C3OP(=O)(O)OP(=O)(O)OC3C3OP(=O)(O)OP(=O)(O)OC3C2OP(=O)(O)O1` (stereo not drawn) [ITPP, inositol-tripyrophosphate] as the compound, how does the “tolerability of ITPP” value ([1]; HFD + ITPP 10 g/L in drinking water) read?
A: tolerated very well

Q: And the “weight of Balb/c mice” value ([1]; HFD/ITPP consumers, 10 g/L in drinking water, 70 days, HFD/water mice ~40 g)?
A: < 30 g

Q: What about the weight gain ([1]; HFD/ITPP consumers, 70 days, HFD/water mice gained approximately 30%) of the same compound?
A: did not gain significant weight

Q: And the “weight of Balb/c mice” value ([2]; FIG. 1, HFD + ITPP solution 10 g per liter water ad libitum, oral, 70 days after beginning, HFD/water mice ~40 g)?
A: ~30 g

Q: What about the “tolerability of ITPP solution” value ([2]; FIG. 1, HFD + ITPP solution 10 g/L ad libitum, oral) of the same compound?
A: well tolerated

Q: What about the “first day with significant differences in weight, HFD/water versus HFD/ITPP” value ([2]; HFD + ITPP in water versus HFD + water) of the same compound?
A: 10 days

Q: And the “weight increase of ITPP drinking group on HFD” value ([2]; HFD + ITPP in water, whole period of the experiment, compared with normal-food control group)?
A: did not increase their weight at all

Q: What about the “mortality and general condition” value ([2]; orally offered ITPP solution with HFD, two periods (120 days and 70 days), fur, eyes, vitality normal) of the same compound?
A: No animal died or was suffering

Q: What about the “weight loss versus untreated group” value [3] of the same compound?
A: lost considerably more weight than the untreated group
